{
  "source": "patent US10702518B2",
  "about": "“TAF1 inhibitors for the therapy of cancer” (CeMM—Forschungszentrum für Molekulare Medizin GmbH, priority 2016, dated 2020)",
  "key": {"KBM7 cells": {"system": "KBM7 cells", "test": "CellTiterGlo viability of control and TAF1 downregulated KBM7 cells", "details": "shRNA TAF1 vs control, 96 hours"}, "THP1 cells [1]": {"system": "THP1 cells", "test": "AnnexinV apoptosis assay in THP1 cells", "details": "72 hours", "procedure": "(f) Quantification of AnnexinV positive cells from immunofluorescence images. […] At least 3 biological replicates were performed and more than 1,500 cells were quantified for each point (mean±STD).\nApoptotic cells were detected using the Annexin V-FITC Apoptosis detection kit (Abcam) according to the manufacturer's instruction. Apoptosis quantification was performed with the Harmony software (PerkinElmer) for nuclei and cytoplasm detection and analysis, adapted for the nucleus diameter range and cell shape of the specific cell line used."}, "[2]": {"system": "c-MYC expression in WT-KBM7", "test": "c-MYC expression by RT-PCR in WT-KBM7", "type": "cell-based, human", "details": "1, 10 and 20 μM, 24 hours", "procedure": "(c) Percentage of c-MYC expression in WT-KBM7 treated with the selected compounds, assessed by RT-PCR. 1, 10 and 20 μM of each compound were used to treat cells for 24 hours; DMSO was used as negative control and (S)-JQ1 as positive control. Three biological replicates were performed (mean±STD).\nRNA extraction was performed with TRIzol Reagent (Life Technologies) according to the manufacturer's protocol and Reverse Transcription (RT) was performed using the High Capacity cDNA Reverse Transcription Kit (Applied Biosystems) following the standard protocol.\nQPCR was performed using the Power SYBR Green Master mix (Invitrogen) as described in the manufacturer's protocol.\nReal-time amplification results were normalized to the endogenous housekeeping genes Actin or GAPDH. The relative quantities were calculated using the comparative CT (Cycle Threshold) Method (ΔΔCT Method)."}, "THP1 cells [3]": {"system": "THP1 cells", "test": "Cell cycle assay in THP1 cells", "details": "48 hours", "procedure": "(e) Quantification of cells in S-phase by staining the nuclei with PI and analyzing DNA content by FACS. […] Three different biological replicates were performed and 30,000 cells were analysed each time (mean±STD).\nFor cell cycle analysis, cells were fixed with 70% ethanol for 24 hours, washed with PBS/0.1%-Tween and incubated with RNase for 20 minutes. Nuclei were stained with 5 μg/ml PI (propidium iodide, Sigma) for 10 minutes prior to FACS analysis (BD FACSCalibur Flow Cytometer)."}, "THP1 cells [4]": {"system": "THP1 cells", "test": "Cell viability of THP1 cells, combination with (S)-JQ1", "type": "cell-based, human"}, "TAF1 (2)": {"target": "T1, TAF1 (2) (Homo sapiens, UniProt P21675)", "T1 construct": "the second bromodomain of TAF1 (TAF1 (2)); purchased DiscoverX Corporation (contract assay); host or cells: T7 phage in E. coli host derived from BL21", "T1 sequence (P21675 1519-1628 limits assumed)": "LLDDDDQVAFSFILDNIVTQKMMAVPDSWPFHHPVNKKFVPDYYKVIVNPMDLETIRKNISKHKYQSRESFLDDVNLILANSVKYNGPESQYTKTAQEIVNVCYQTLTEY", "test": "BromoScan / BromoELECT / BromoKdELECT, TAF1 (2)", "type": "binding", "details": "10 μM", "description": "(§1) Bubbles indicate the percentage of inhibition of the binding of the analyzed bromodomains to an acetylated substrate. […] (g) BromoKdELECT assay for CeMMEC1 against TAF1 (2). […] (i) Docking of CeMMEC1 to the second bromodomain of TAF1. 3D model (top panel) and 2D ligand interaction diagram (bottom panel). Red dots in the 3D model indicate water molecules.\n(§2) (c) not used (d) KinomeScan profile for CeMMEC1 (10 μM). Bubbles indicate the percentage of inhibition of the binding of the analyzed kinase to an immobilized ligand."}, "REDS3 cells": {"system": "REDS3 cells", "test": "RFP reporter expression in REDS3 cells (live cell imaging)", "type": "cell-based, human", "details": "for RFP expression in REDS3 cells: single agent", "description": "Cells were seeded on clear flat bottom 96-well or 384-well plates (Corning) and treated with the indicated compounds for the specified conditions. Live cell imaging pictures were taken with the Operetta High Content Screening System (PerkinElmer), 20× objective and non-confocal mode.\nOnly RFP-positive nuclei were detected and counted.\nThe increase of RFP fluorescence, detected with the Operetta High Content Screening System (PerkinElmer), 20× objective and non-confocal mode, was used as read-out.\nBriefly, the screening was divided in three parts called respectively 1) primary screening, 2) follow up and 3) validation. During the primary screening REDS3 cells were treated with 10 μM of every compound, and live cell imaging pictures were taken in order to assess their ability to induce RFP expression 24 hours later."}, "H23 cells": {"system": "H23 cells", "test": "Cell viability of H23 cells, combination with (S)-JQ1", "type": "cell-based"}, "CREBBP": {"target": "CREBBP (Homo sapiens, UniProt Q92793)", "sequence (Q92793 1085-1192 limits assumed)": "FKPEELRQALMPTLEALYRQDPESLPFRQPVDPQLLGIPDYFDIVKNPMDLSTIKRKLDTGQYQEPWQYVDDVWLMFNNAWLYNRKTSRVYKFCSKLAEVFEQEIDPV", "test": "BromoScan / BromoELECT / BromoKdELECT, CREBBP", "type": "binding", "details": "BromoScan/BromoELECT, 10 μM", "description": "as §1, §2"}, "TAF1(BD2)": {"target": "T2, TAF1(BD2) (Homo sapiens, UniProt P21675)", "T2 construct": "the second bromodomain of TAF1 (TAF1 (2)); purchased DiscoverX Corporation (contract assay); host or cells: T7 phage in E. coli host derived from BL21", "T2 sequence (P21675 1519-1628 limits assumed)": "T1 sequence (P21675 1519-1628 limits assumed)", "test": "BROMOscan binding constant determination for TAF1(BD2)", "details": "11-point 3-fold dilution series, read-out: TAF1_BD2 (IC50 μM)", "description": "Bromodomain assays: T7 phage strains displaying bromodomains were grown in parallel in 24-well blocks in an E. coli host derived from the BL21 strain. E. coli were grown to log-phase and infected with T7 phage from a frozen stock (multiplicity of infection=0.4) and incubated with shaking at 32° C. until lysis (90-150 minutes). The lysates were centrifuged (5,000×g) and filtered (0.2 μm) to remove cell debris. Streptavidin-coated magnetic beads were treated with biotinylated small molecule or acetylated peptide ligands for 30 minutes at room temperature to generate affinity resins for bromodomain assays. The liganded beads were blocked with excess biotin and washed with blocking buffer (SeaBlock (Pierce), 1% BSA, 0.05% Tween 20, 1 mM DTT) to remove unbound ligand and to reduce non-specific phage binding. […] Test compounds were prepared as 1000× stocks in 100% DMSO. Kds were determined using an 11-point 3-fold compound dilution series with one DMSO control point. […] The compounds were then diluted directly into the assays such that the final concentration of DMSO was 0.09%. All reactions performed in polypropylene 384-well plates. Each was a final volume of 0.02 ml. […] The bromodomain concentration in the eluates was measured by qPCR.\nCompound handling: An 11-point 3-fold serial dilution of each test compound was prepared in 100% DMSO at 1000× final test concentration. […] The compounds were then diluted directly into the assays such that the final concentration of DMSO was 0.09%. Most Kds were determined using a compound top concentration=10,000 nM. If the initial Kd determined was <0.169 nM (the lowest concentration tested), the measurement was repeated with a serial dilution starting at a lower top concentration.\nBinding constants (Kds) were calculated with a standard dose-response curve using the Hill equation: […]\nThe Hill Slope was set to −1. Curves were fitted using a non-linear least square fit with the Levenberg-Marquardt algorithm.\nThe results thus obtained are reported in the following table as IC50 values [μM] for TAF1(BD2)."}, "[5]": {"system": "bromodomains of BRD4 (1), BRD4 (2), BRD9, CREBBP, EP300 and TAF1 (2)", "test": "BromoELECT bromodomain panel", "type": "binding", "details": "10 μM", "description": ". The assay was done in duplicate (mean±STD); (b) BromoKdELECT assay for CeMMEC1 against TAF1 (2), BRD9, CREBBP and EP300 bromodomains (11 dilutions, from 10 to 0.017 μM). (c) not used (d) KinomeScan profile for CeMMEC1 (10 μM). Bubbles indicate the percentage of inhibition of the binding of the analyzed kinase to an immobilized ligand. (e) BromoELECT assay for CeMMEC1 and analogs A1, A2, 05, 10, 13, 24, 25, 26, 27, 29, 33 and 39 (10 μM) against BRD4 (1), BRD4 (2), BRD9, CREBBP, EP300 and TAF1 (2). (f, g) Docking poses of analog 30 to TAF1 (green) and BRD4 (magenta). (h) Docking of compound 29 to TAF1, no suitable pose could be identified for BRD4. (i) BromoELECT assay for analog 29 (10 μM) against BRD4 (1), BRD9, CREBBP, EP300 and TAF1 (2)."}},
  "data": [
    {"smiles": "Cc1nnc2ccc(NCCC3=CCCCC3)nn12", "note": "[CeMMEC2]", "values": [
      {"measurement": "cell viability with TAF1 downregulation", "setting": "KBM7 cells", "result": "synergism"},
      {"measurement": "apoptosis (AnnexinV staining)", "setting": "THP1 cells [1]", "result": "induced apoptosis"},
      {"measurement": "c-MYC expression", "setting": "[2]", "result": "capable of reducing the expression of this oncogene in a dose-dependent manner"},
      {"measurement": "number of cells in S-phase", "setting": "THP1 cells [3]", "result": "clear and dose-dependent decrease of the number of cells in S-phase"}
    ]},
    {"smiles": "Cn1c(=O)cc(C(=O)Nc2ccc3c(c2)OCCO3)c2ccccc21", "note": "[Compound 29]", "values": [
      {"measurement": "synergy with (S)-JQ1 (Bliss independence test)", "setting": "THP1 cells [4]", "result": "the most effective"},
      {"measurement": "selectivity among BRD4 (1), BRD9, CREBBP, EP300 and TAF1 (2)", "setting": "TAF1 (2); BromoELECT", "result": "high selectivity for the TAF1 (2) bromodomain"},
      {"measurement": "binding to TAF1 (2)", "setting": "TAF1 (2); BromoScan/BromoELECT", "result": "retaining TAF1 activity"},
      {"measurement": "RFP expression in REDS3 cells in combination with (S)-JQ1", "setting": "REDS3 cells", "result": "further boosted RFP expression beyond the increase in single treatments"},
      {"measurement": "RFP expression in REDS3 cells", "setting": "REDS3 cells", "result": "comparable induction of RFP expression in REDS3 cells"},
      {"measurement": "synergy with (S)-JQ1 (Bliss independence test)", "setting": "H23 cells", "result": "the most effective"},
      {"measurement": "binding to CREBBP", "setting": "CREBBP", "result": "lost all affinity to CREBBP"},
      {"measurement": "IC50", "setting": "TAF1(BD2)", "result": 3.1, "unit": "µM"}
    ]},
    {"smiles": "Cn1cc(C(=O)Nc2ccc3c(c2)OCCO3)c(=O)n(C)c1=O", "note": "[Compound 32]", "values": [
      {"measurement": "binding to the tested bromodomain proteins", "setting": "[5]", "result": "bound neither of the tested bromodomain proteins"},
      {"measurement": "RFP expression in REDS3 cells in combination with (S)-JQ1", "setting": "REDS3 cells", "result": "The same effect was not achieved"},
      {"measurement": "RFP expression in REDS3 cells", "setting": "REDS3 cells", "result": "nor did they induce RFP expression in REDS3 cells"}
    ]},
    {"smiles": "Cn1cc(C(=O)Nc2ccc3c(c2)OCCO3)c(=O)[nH]c1=O", "note": "[Compound 35]", "values": [
      {"measurement": "binding to the tested bromodomain proteins", "setting": "[5]", "result": "bound neither of the tested bromodomain proteins"},
      {"measurement": "RFP expression in REDS3 cells in combination with (S)-JQ1", "setting": "REDS3 cells", "result": "The same effect was not achieved"},
      {"measurement": "RFP expression in REDS3 cells", "setting": "REDS3 cells", "result": "nor did they induce RFP expression in REDS3 cells"}
    ]}
  ]
}
